Values joined by “and” are separate entries in the source; they are usually repeats but may differ in a detail not shown here. Equal values may be shown once. Blank lines part the entries; values can stand above or below the molecule they belong to.
Experiments:
[1] = system: Human B lymphoma cell Ramos (Burkitt lymphoma); assay: Inhibition of proliferation of Ramos cells in vitro (MTT, 72 h); type: cell-based
Protocol: (§1) Cell suspensions (Ramos: 10000 cells/well; TMD8: 12000 cells/well) were seeded in a 96-well plate, placed in an incubator for 2 hours at 37° C., after the cell state was stabilized, different concentrations of tested compounds were added to each well (each concentration was set with 3 duplicate wells), and blank control (only containing culture solution, but not containing cells), negative control (only adding cells, but not adding compounds) and positive compound control were set at the same time. After 72 h treatment, 20 μL MTT (5 mg/ml) was added to each well and incubated for 4 h at 37° C. 100 μL triple solution (10% SDS, 5% isobutanol, 0.01 M HCl) was added and placed overnight at 37° C. The OD value was measured with microplate enzyme-labeled instrument SPECTRA MAX Plus 384 with adjustable wavelength at 570 nm.
(§2) The inhibition rate of the compound was obtained by the following formula: […]
(§3) The IC50 value was obtained by four-parameter regression using the software attached to the microplate reader.

[2] = system: Human diffuse large B lymphoma cell TMD8; assay: Inhibition of proliferation of TMD8 cells in vitro (MTT, 72 h); type: cell-based
Protocol: as §1, §2, §3

[3] = Further study of metabolism of earlier compounds; type: in vitro ADME; settings: 4-position of terminal phenyl easy to be oxidized
BTK = BTK (Homo sapiens, UniProt Q06187); settings: disclosed in patent CN108101905A; cited from earlier work
Sequence of BTK (Q06187 whole entry): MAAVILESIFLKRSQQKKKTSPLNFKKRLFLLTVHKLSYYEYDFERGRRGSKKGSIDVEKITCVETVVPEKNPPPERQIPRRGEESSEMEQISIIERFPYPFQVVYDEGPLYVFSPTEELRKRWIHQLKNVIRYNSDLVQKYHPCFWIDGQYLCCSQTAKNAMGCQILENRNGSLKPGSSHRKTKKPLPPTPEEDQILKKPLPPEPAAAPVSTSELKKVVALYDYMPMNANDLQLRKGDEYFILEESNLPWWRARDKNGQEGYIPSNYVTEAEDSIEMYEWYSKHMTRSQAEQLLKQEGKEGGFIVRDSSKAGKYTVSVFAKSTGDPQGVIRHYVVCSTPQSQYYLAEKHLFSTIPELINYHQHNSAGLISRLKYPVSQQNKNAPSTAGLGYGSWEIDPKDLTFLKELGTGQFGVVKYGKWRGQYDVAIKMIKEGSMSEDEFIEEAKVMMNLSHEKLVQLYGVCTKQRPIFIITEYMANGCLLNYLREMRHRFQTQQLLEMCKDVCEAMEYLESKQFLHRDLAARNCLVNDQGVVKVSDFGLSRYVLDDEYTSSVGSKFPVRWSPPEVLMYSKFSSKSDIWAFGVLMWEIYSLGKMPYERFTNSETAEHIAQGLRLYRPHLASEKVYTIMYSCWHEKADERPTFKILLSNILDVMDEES

[4] = target: BTK tyrosine kinase protein (Homo sapiens, UniProt Q06187); assay: Inhibitory activity evaluation of Bruton kinase (BTK) at molecular level (ELISA); type: biochemical; settings: ATP 5 μM
Sequence of BTK tyrosine kinase protein (Q06187 whole entry): as above
Protocol: The enzyme reaction substrate Poly (Glu, Tyr)4:1 was diluted with potassium-free PBS (10 mM sodium phosphate buffer, 150 mM NaCl, pH 7.2-7.4) to 20 μg/ml, and coated enzyme plate. After reacting at 37° C. for 12-16 hours, the plate was washed three times with 200 μL/well T-PBS (PBS containing 0.1% Tween-20) and dried in 37° C. oven for 1-2 hours. 49 μL/well ATP solution (final concentration was 5 μM) diluted with a reaction buffer (50 mM HEPES pH 7.4, 50 mM MgCl2, 0.5 mM MnCl2, 0.2 mM Na3VO4, 1 mM DTT) was firstly added into the substrate-coated plate. 1 μL compound to be tested (compound well) or DMSO with corresponding concentration (negative control well) was added into each well, and enzyme-free control well was set up for each experiment. Then 50 μL of BTK tyrosine kinase protein diluted with reaction buffer was added to start the reaction.
The above reaction system was placed in a shaking table (100 rpm) for 1 hour at 37° C., then the plate was washed with T-PBS for three times, and the primary antigen PY99 100 μL/well (Santa Cruz) was added, and the reaction was carried out in a shaking table for 0.5 hours at 37° C. […]

[5] = system: human lymphoma TMD8 xenograft; assay: Anti-tumor activity in vivo, TMD8 xenograft tumor model; design: species or system Mice; settings: for Tumor volume: 17th day, mean ± SEM
Protocol: (§4) • 1) Species: Mice • 2) Strain: CB-17 SCID • 3) Age and body weight: 6-8 weeks; 18-22 g • 4) Sex: Female • 5) Supplier: Beijing Vital River Laboratory Animal Technology Co., Ltd. REC-1 Xenograft Tumor Model • 1) Species: Mice • 2) Strain: BALB/c nude mice • 3) Age and body weight: 6-8 weeks; 17-20 g • 4) Sex: Female • 5) Supplier: Shanghai Lingchang Biotechnology Co., Ltd.
(§5) Conventional treatment was carried out twice a week. When the cell saturation was 80%-90%, the cells were collected, counted and inoculated.
Tumor cell inoculation: 0.2 mL 10×10^6 Human lymphoma TMD8 cells were subcutaneously inoculated into the right back of each nude mouse (PBS:Matrigel=1:1). When the average tumor volume reached 104 mm^3, group administration began. Each group of 6 mice was grouped according to the tumor volume by random grouping software based on Excel.
(§6) The health status and death status of animals were monitored every day. Routine examinations included observing the effects of tumor growth and drug treatment on daily behaviors of animals, such as behavioral activities, food intake and water intake (visual inspection only), weight change (weight measurement three times a week), appearance signs or other abnormal conditions. Based on the number of animals in each group, the number of animal deaths and side effects in each group were recorded.
(§7) Tumor measurement and experimental indexes: the experimental index was to investigate whether the tumor growth is inhibited, delayed or cured. The tumor diameter was measured with vernier caliper three times a week.
(§8) TGI (%), reflecting the tumor growth inhibition rate.
(§9) Relative tumor proliferation rate T/C (%): the calculation formula is as follows:
(§10) T/C %=TRTV/CRTV×100% (TRTV: Relative tumor volume in treatment group; CRTV: Relative tumor volume in negative control group).
(§11) Statistical analysis: Statistical analysis, including the mean value of tumor volume and standard error (SEM) at each time point in each group. […] Three or more groups were compared with one-way ANOVA. If there were significant differences in F values, Games-Howell method was used to test. All data were analyzed with SPSS 17.0. p<0.05 was considered as significant difference.

[6] = Oral bioavailability of earlier compound; settings: in vivo
[7] = Metabolic stability test in mouse liver microsomes; type: in vitro ADME; settings: MLM, 0.1 μM drug, 0.33 mg/ml microsomes, NADPH
Protocol: (§12) Liver microsomes were incubated in a 96-well plate, and the volume of each incubated system was 450 μL with a medium of 0.1 M Tris buffer (pH 7.4), including liver microsomes with a final concentration of 0.33 mg/ml, 0.1 μM of tested drugs and 5.0 mM MgCl2, 0.01% DMSO, 0.005% BSA and 1.0 mM NADPH. Incubated at 37° C. for 10 min, NADPH was added to initiate the reaction, and 50 μL was taken out and added with the same volume of methanol to terminate the reaction after 0, 7, 17, 30 and 60 min, respectively.
(§13) S17016 in incubated samples was determined by LC/MS/MS with electrospray ionization (ESI) as the ion source and multi-reaction monitoring (MRM) as the scanning mode.
(§14) The experimental results of metabolic stability in vitro of S17016 in different liver microsomes (HLM: human liver microsomes; RLM: rat liver microsomes; MLM: mouse liver microsomes) were shown in Table 9 and FIG. 3 below.

[8] = Metabolic stability test in rat liver microsomes; type: in vitro ADME; settings: RLM, 0.1 μM drug, 0.33 mg/ml microsomes, NADPH
Protocol: as §12, §13, §14

[9] = system: human mantle cell lymphoma REC-1 xenograft; assay: Anti-tumor activity in vivo, REC-1 xenograft tumor model; design: species or system Mice; settings: for T/C (%) / TGI (%): day 15; for Tumor volume (mm^3) (Day 15): day 15, mean ± SEM
Protocol: as §4, §5
0.2 mL 5×10^6 REC-1 cells were subcutaneously inoculated into the right back of each nude mouse (PBS:Matrigel=1:1). When the average tumor volume reached 100 mm^3, group administration began. Each group of 6 mice was grouped according to the tumor volume by random grouping software based on Excel.
as §6, §7, §8, §9, §10, §11

in vivo = settings: male, Sprague-Dawley (SD), rat
Protocol: Fourteen SD rats, male, weighing 200-220 g, were randomly divided into 4 groups (4/3 rats in each group) and given the tested compounds by intragastric administration and intravenous administration respectively.
0.5% sodium carboxymethyl cellulose (CMC-Na) containing 1% Tween 80 was formulated for intragastric administration, and 5% DMSO/5% Tween 80/90% normal saline was formulated for intravenous administration.
Fasting for 12 hours and drinking water freely before the test. Eat uniformly 2 hours after administration.
At the above set time point, 0.3 ml of venous blood was taken through the posterior venous plexus of the rat eyeball, placed in a heparinized test tube, centrifuged at 11000 rpm for 5 minutes, and the plasma was separated, frozen in the fridge at −20° C.
The concentration of S17016 in rat plasma was determined by LC/MS/MS.

[10] = Metabolic stability test in human liver microsomes; type: in vitro ADME; settings: HLM, 0.1 μM drug, 0.33 mg/ml microsomes, NADPH
Protocol: as §12, §13, §14

SMILES: CC#CC(=O)N1CCC[C@H]1c1nc(-c2ccc(C(=O)Nc3ccccn3)cc2)c2c(N)nccn12 [Acalabrutinib]
IC50 [1]: 38.2 µM
IC50 [2]: 0.023 µM

SMILES: C=CC(=O)N[C@@H]1CCc2c(-c3ccc(Oc4ccccc4)cc3)c3c(N)ncnc3n2C1 [Compound S1]
stability in metabolism [3]: unstable in metabolism
IC50 [1]: 94.7 µM
BTK inhibitory activity (BTK): high BTK inhibitory activity
IC50 [2]: 0.006 µM

SMILES: CC#CC(=O)N[C@@H]1CCc2c(-c3ccc(Oc4ccccc4)cc3)c3c(N)ncnc3n2C1 [Compound S10]
stability in metabolism [3]: unstable in metabolism
IC50 [1]: 8.72 µM
IC50 [4]: < 0.01 µM
BTK inhibitory activity (BTK): high BTK inhibitory activity
IC50 [2]: 0.03 µM

SMILES: C=CC(=O)NC1Cn2c(c(-c3ccc(C(=O)Nc4ccccn4)cc3)c3c(N)ncnc32)C1=C (stereo not drawn) [Compound S20s]
IC50 [1]: 14.3 µM
oral bioavailability [6]: not ideal
IC50 [2]: 0.004 µM

SMILES: C=C1c2c(-c3ccc(C(=O)Nc4ccccn4)cc3)c3c(N)ncnc3n2C[C@H]1NC(=O)C#CC [Compound S17016]
Absolute value of peak area, M0: parent compound [7]: 19033
M0: parent compound, share of peak area [7]: (97.82%)
Tumor volume ([5]; 5 mg/kg): 912 mm^3 and 912 ± 114 mm^3
T/C (%) ([5]; 5 mg/kg, day 17): 49.27%
TGI (%) ([5]; 5 mg/kg, day 17): 53.78%
Tumor volume ([5]; 10 mg/kg): 553 mm^3 and 553 ± 56 mm^3
T/C (%) ([5]; 10 mg/kg, day 0): 100%
T/C (%) ([5]; 10 mg/kg, day 5): 48.31%
T/C (%) ([5]; 10 mg/kg, day 8): 39.22%
T/C (%) ([5]; 10 mg/kg, day 10): 34.25%
T/C (%) ([5]; 10 mg/kg, day 12): 30.90%
T/C (%) ([5]; 10 mg/kg, day 15): 30.56%
T/C (%) ([5]; 10 mg/kg, day 17): 29.85%
TGI (%) ([5]; 10 mg/kg, day 17): 74.35%
Absolute value of peak area, M0: parent compound [8]: 12675
M0: parent compound, share of peak area [8]: (84.07%)
T/C (%) ([9]; 15 mg/kg): 30%
TGI (%) ([9]; 15 mg/kg): 73%
Tumor volume (mm^3) (Day 15) ([9]; 15 mg/kg, 15 mg/kg): 1034 mm^3 and 1034 ± 202 mm^3
T/C (%) ([9]; 30 mg/kg): 19%
TGI (%) ([9]; 30 mg/kg): 83%
Tumor volume (mm^3) (Day 15) ([9]; 30 mg/kg, 30 mg/kg): 680 mm^3 and 680 ± 106 mm^3
bioavailability (in vivo; in vivo): 24.8%
Vd (in vivo; in vivo, iv, 1 mg/kg): 0.221 L/kg
clearance (in vivo; in vivo, iv, 1 mg/kg): 0.2 L/h/kg
half-life (in vivo; in vivo, iv, 1 mg/kg): 75.6 min
AUC (in vivo; in vivo, po, 3 mg/kg): 3.86 µg·h/mL
Cmax (in vivo; in vivo, po, 3 mg/kg): 2.7 µg/mL
Tmax (in vivo; in vivo, po, 3 mg/kg): 15 min
IC50 [1]: 3.15 µM
IC50 [4]: 0.0005 µM
IC50 [2]: 0.003 µM
Absolute value of peak area, M0: parent compound [10]: 20285
M0: parent compound, share of peak area [10]: (97.45%)

Now from value to molecule, other results behind:

stability in metabolism [3]: unstable in metabolism
IC50 [1]: 5.04 µM
IC50 [2]: 0.016 µM
SMILES: C=CC(=O)NC1Cn2c(c(-c3ccc(Oc4ccccc4)cc3)c3c(N)ncnc32)C1=C (stereo not drawn) [Compound S18s, reference compound]
T/C (%) ([5]; 15 mg/kg, day 0): 100%
T/C (%) ([5]; 15 mg/kg, day 6): 53.51%
T/C (%) ([5]; 15 mg/kg, day 8): 47.28%
T/C (%) ([5]; 15 mg/kg, day 11): 37.73%
T/C (%) ([5]; 15 mg/kg, day 13): 34.97%

stability in metabolism [3]: unstable in metabolism
IC50 [2]: 0.017 µM
SMILES: C=C1c2c(-c3ccc(Oc4ccccc4)cc3)c3c(N)ncnc3n2CC1NC(=O)C#CC (stereo not drawn) [Compound S19s]

bioavailability (in vivo; plasma, oral, 3 mg/kg): 4%
AUC (in vivo; plasma, po, 3 mg/kg): 0.057 µg·h/mL
IC50 [1]: 12.9 µM
IC50 [2]: 0.005 µM
SMILES: C=CC(=O)N1CCC[C@@H](n2nc(-c3ccc(Oc4ccccc4)cc3)c3c(N)ncnc32)C1 [Ibrutinib, reference compound]
Tumor volume ([5]; 25 mg/kg): 661 mm^3 and 661 ± 168 mm^3
TGI (%) ([5]; 25 mg/kg, day 17): 68.18%
TGI (%) ([9]; 25 mg/kg): 64%
Tumor volume (mm^3) (Day 15) ([9]; 25 mg/kg, 25 mg/kg): 1323 mm^3 and 1323 ± 195 mm^3

From patent US12384795B2, “Pyrimido[5,4-b]pyrrolizin compound, optical isomer thereof, preparation method therefor and use thereof” (SHANGHAI INSTITUTE OF MATERIA MEDICA, CHINESE ACADEMY OF …, priority 2019, dated 2025)
